Converted amounts (≈) assume the structure as drawn. One block for each molecule: values may come before it.
Assays:
HT-29 = assay: cells; conditions: Homo sapiens, HT-29, 48 h
Description: Antiproliferative activity against human HT-29 cells after 48 hrs by MTT assay

PC-3 [1] = assay: cells; conditions: Homo sapiens, PC-3, 48 h
MCF7 [2] = assay: Cytotoxicity against human MCF7 cells; format: functional, cell-based
HCT-116 [3] = assay: Cytotoxicity against human HCT116 cells; format: functional, cell-based
PC-3 [4] = assay: Cytotoxicity against human PC3 cells; format: functional, cell-based
DU-145 = assay: Growth inhibition of human DU145 cells by microtiter plate assay; format: functional
MDA-MB-231 [5] = assay: Growth inhibition of human MDA-MB-231 cells by microtiter plate assay; format: functional
MCF7 [6] = assay: Growth inhibition of human MCF7 cells by microtiter plate assay; format: functional
MDA-MB-231 [7] = assay: Cytotoxicity against human MDA-MB-231 cells; format: functional
SiHa = assay: Cytotoxicity against human SiHa cells; format: functional
PANC-1 = assay: Cytotoxicity against human PANC1 cells; format: functional
SK-BR-3 = assay: Cytotoxicity against human SKBR3 cells; format: functional, cell-based
Caco-2 = assay: Cytotoxicity against human Caco2 cells; format: functional, cell-based
HeLa [8] = assay: Cytotoxicity against human HeLa cells; format: functional, cell-based
HCT-116 [9] = assay: Cytotoxicity against human HCT116 cells after 96 hrs by MTT assay; format: functional, cell-based; conditions: HCT-116, 96 h
HepG2 [10] = assay: Cytotoxicity against human HepG2 cells after 96 hrs by MTT assay; format: functional, cell-based; conditions: HepG2, 96 h
HepG2 [11] = assay: Cytotoxicity against human HepG2 cells
MCF7 [12] = assay: Growth inhibition of human MCF7 cells; format: functional
HepG2 [13] = assay: Growth inhibition of human HepG2 cells; format: functional
HeLa [14] = assay: Growth inhibition of human HeLa cells; format: functional

IC50 (HT-29): 6.43 µM | IC50 (PC-3 [1]): 9.83 µM
SMILES: O=C(O)Cn1nnc(-c2cn(-c3ccccc3)nc2-c2ccc(Cl)cc2)n1

SMILES: COc1cc(/C=C/C(=O)c2cccs2)ccc1Oc1nnnn1-c1ccccc1
IC50 (MCF7 [2]): 2.9 µg/mL | IC50 (HCT-116 [3]): 2.5 µg/mL (≈ 6.18 µM) | IC50 (PC-3 [4]): 5 µg/mL (≈ 12.4 µM)

GI50 (DU-145): 0.34 to 0.55 µM | GI50 (MDA-MB-231 [5]): 0.34 to 0.55 µM | GI50 (MCF7 [6]): 0.34 to 0.55 µM
SMILES: CCc1cc2c(cc1OS(N)(=O)=O)CC[C@@H]1[C@@H]2CC[C@]2(C)[C@@H](Cc3nnnn3C)CC[C@@H]12

SMILES: COc1cc(/C=C/C(=O)c2ccc(F)cc2)ccc1Oc1nnnn1-c1ccccc1
IC50 (HCT-116 [3]): 2.5 to 7 µg/mL (≈ 6 to 16.8 µM) | IC50 (PC-3 [4]): 2.5 to 7 µg/mL (≈ 6 to 16.8 µM)

SMILES: CC/C(=C(\c1ccccc1)c1ccc(OCCN(C)C)cc1)c1ccccc1 [TAMOXIFEN]
GI50 (MDA-MB-231 [7]): 0.24 µM | GI50 (SiHa): 0.12 µM | GI50 (PANC-1): 0.15 µM

IC50 (HT-29): 86.3 µM | IC50 (PC-3 [1]): 70.2 µM
SMILES: O=C(O)Cn1nnc(-c2cn(-c3ccccc3)nc2-c2ccccc2)n1

SMILES: NC1=C(c2nnn[nH]2)C(c2cccc(O)c2)c2c(ccc3ccccc23)O1 (stereo not given)
IC50 (MCF7 [2]): 15 to 87 µM | IC50 (SK-BR-3): 15 to 87 µM | IC50 (Caco-2): 15 to 87 µM | IC50 (HeLa [8]): 15 to 87 µM

SMILES: COc1cc(/C=C/C(=O)c2ccco2)ccc1Oc1nnnn1-c1ccccc1
IC50 (HCT-116 [3]): 2.5 to 7 µg/mL (≈ 6.44 to 18 µM) | IC50 (PC-3 [4]): 2.5 to 7 µg/mL (≈ 6.44 to 18 µM)

SMILES: COc1ccc(C(=O)/C=C/c2ccc(Oc3nnnn3-c3ccccc3)cc2)cc1OC
IC50 (HCT-116 [3]): 3.7 µg/mL (≈ 8.64 µM) | IC50 (PC-3 [4]): 3 µg/mL (≈ 7 µM)

IC50 (HT-29): 2.24 µM | IC50 (PC-3 [1]): 3.86 µM
SMILES: COc1cccc2c1C(=O)c1c(O)c3c(c(O)c1C2=O)C[C@@](O)(C(=O)CO)C[C@@H]3O[C@H]1C[C@H](N)[C@H](O)[C@H](C)O1 [DOXORUBICIN]
IC50 (HCT-116 [9]): 2.6 µM | IC50 (HepG2 [10]): 2.85 µM | IC50 (HepG2 [11]): 4 µg/mL (≈ 7.36 µM)

SMILES: O=C(O)c1cn(C2CC2)c2cc(N3CCN(C(=O)CCSc4nnnn4-c4ccc(F)c(F)c4F)CC3)c(F)cc2c1=O
GI50 (MDA-MB-231 [7]): 0.066 to 1.3 µM | GI50 (SiHa): 0.066 to 1.3 µM | GI50 (PANC-1): 0.066 to 1.3 µM

SMILES: O=C(O)c1cn(C2CC2)c2cc(N3CCN(C(=O)CCSc4nnnn4-c4ccc(Br)cc4)CC3)c(F)cc2c1=O
GI50 (MDA-MB-231 [7]): 0.066 to 1.3 µM | GI50 (SiHa): 0.066 to 1.3 µM | GI50 (PANC-1): 0.066 to 1.3 µM

SMILES: CC[C@H](CC[C@@H](C)[C@H]1CC[C@H]2[C@H]3[C@H](CC[C@]12C)[C@@]1(C)CCCCC1=Cc1nnnn13)C(C)C
IC50 (HCT-116 [9]): 4.58 µM | IC50 (HepG2 [10]): 4.82 µM

SMILES: CCn1cc(C(=O)O)c(=O)c2cnc(N3CCN(C(=O)CCSc4nnnn4-c4ccc(OC)c(OC)c4OC)CC3)nc21
GI50 (MDA-MB-231 [7]): 0.066 to 1.3 µM | GI50 (SiHa): 0.066 to 1.3 µM | GI50 (PANC-1): 0.066 to 1.3 µM

GI50 (MCF7 [12]): 8.2 to 41 µM | GI50 (HepG2 [13]): 8.2 to 41 µM | GI50 (HeLa [14]): 8.2 to 41 µM
SMILES: CN(C)C(=O)NC(c1ccccc1)n1cnnn1 (stereo not given)

SMILES: COc1cc(-n2nnnc2SCCC(=O)N2CCN(c3cc4c(cc3F)c(=O)c(C(=O)O)cn4C3CC3)CC2)cc(OC)c1OC
GI50 (MDA-MB-231 [7]): 0.066 to 1.3 µM | GI50 (SiHa): 0.066 to 1.3 µM | GI50 (PANC-1): 0.066 to 1.3 µM

SMILES: COc1cccc(C2C(c3nnn[nH]3)=C(N)Oc3ccc4ccccc4c32)c1OC (stereo not given)
IC50 (MCF7 [2]): 15 to 87 µM | IC50 (SK-BR-3): 15 to 87 µM | IC50 (Caco-2): 15 to 87 µM | IC50 (HeLa [8]): 15 to 87 µM

IC50 (HT-29): 7.23 to 48.3 µM | IC50 (PC-3 [1]): 7.23 to 48.3 µM
SMILES: COc1ccc(-c2nn(-c3ccccc3)cc2-c2nnn(CC(=O)O)n2)cc1

SMILES: COc1cc(/C=C/C(=O)c2ccc(Br)cc2)ccc1Oc1nnnn1-c1ccccc1
IC50 (HCT-116 [3]): 2.5 to 7 µg/mL (≈ 5.24 to 14.7 µM) | IC50 (PC-3 [4]): 2.5 to 7 µg/mL (≈ 5.24 to 14.7 µM)

SMILES: COc1ccc(C2C(c3nnn[nH]3)=C(N)Oc3ccc4ccccc4c32)c(OC)c1 (stereo not given)
IC50 (MCF7 [2]): 15 to 26 µM | IC50 (SK-BR-3): 15 to 26 µM | IC50 (Caco-2): 15 to 26 µM | IC50 (HeLa [8]): 15 to 26 µM

GI50 (MCF7 [12]): 5.2 to 8.1 µM | GI50 (HepG2 [13]): 5.2 to 8.1 µM | GI50 (HeLa [14]): 5.2 to 8.1 µM
SMILES: NC(=S)NNC(c1ccccc1)n1cnnn1 (stereo not given)

GI50 (DU-145): 0.34 to 100 µM | GI50 (MDA-MB-231 [5]): 0.34 to 100 µM | GI50 (MCF7 [6]): 0.34 to 100 µM
SMILES: CCc1cc2c(cc1OS(N)(=O)=O)CC[C@@H]1[C@@H]2CC[C@]2(C)[C@@H](Cc3nnn[nH]3)CC[C@@H]12

SMILES: COc1cc(/C=C/C(=O)c2ccccc2OC)ccc1Oc1nnnn1-c1ccccc1
IC50 (HCT-116 [3]): 2.5 to 7 µg/mL (≈ 5.84 to 16.3 µM) | IC50 (PC-3 [4]): 2.5 to 7 µg/mL (≈ 5.84 to 16.3 µM)

SMILES: CCc1ccc(C2C(c3nnn[nH]3)=C(N)Oc3ccc4ccccc4c32)cc1 (stereo not given)
IC50 (MCF7 [2]): 15 to 87 µM | IC50 (SK-BR-3): 15 to 87 µM | IC50 (Caco-2): 15 to 87 µM | IC50 (HeLa [8]): 15 to 87 µM

SMILES: COc1ccc(OC)c(C2C(c3nnn[nH]3)=C(N)Oc3ccc4ccccc4c32)c1 (stereo not given)
IC50 (MCF7 [2]): 15 to 87 µM | IC50 (SK-BR-3): 15 to 87 µM | IC50 (Caco-2): 15 to 87 µM | IC50 (HeLa [8]): 15 to 87 µM

SMILES: COc1cc(/C=C/C(=O)c2ccc(C)cc2)ccc1Oc1nnnn1-c1ccccc1
IC50 (HCT-116 [3]): 2.5 to 7 µg/mL (≈ 6.06 to 17 µM) | IC50 (PC-3 [4]): 2.5 to 7 µg/mL (≈ 6.06 to 17 µM)
